Results taken from US20140193827A1 (TEVA PHARMACEUTICAL INDUSTRIES, LTD., priority 2013, published 2014).

System: GA-primed murine splenocytes
Assay: ANOVA-based pattern identification method
Type: cell-based, mouse
From the text: We sought to identify probes matching specific patterns of expression across experimental conditions using a technique that referred to as the ANOVA-based Pattern Identification Method.
To carry out the analysis in a general manner, we computed the 6 p-values required to do pairwise comparisons of all 4 conditions for all probes using the ANOVA1 function in MATLAB. We then identified sets of probes matching the desired pattern. In the example above, probes were identified as being only affected by PG if their 6 pairwise comparison pvalues matched the following pattern (pGA-PG<0.05, pPG-reference standard<0.05, pPG-Medium<0.05, pGAMedium>0.05, pGA-reference standard>0.05, preference standard-Medium>0.05).

[1] = DOWN IN GA AND REF ONLY, first line for this gene
[2] = DOWN IN GA AND REF ONLY, second line for this gene

glatiramer acetate [GA]
average expression of LOC382163 (DOWN IN GA AND REF ONLY): 6.742
average expression of LOC383099 (DOWN IN GA AND REF ONLY): 13.14
average expression of LOC386085 (DOWN IN GA AND REF ONLY): 6.21
average expression of LOC386117 (DOWN IN GA AND REF ONLY): 7.052
average expression of LOC636818 (DOWN IN GA AND REF ONLY): 5.986
average expression of LOC100046003 (DOWN IN GA AND REF ONLY): 8.735
average expression of LYNX1 (DOWN IN GA AND REF ONLY): 8.531
average expression of MBD1 (DOWN IN GA AND REF ONLY): 9.009
average expression of MBL1 (DOWN IN GA AND REF ONLY): 5.552
average expression of MKL1 (DOWN IN GA AND REF ONLY): 6.303
average expression of MREG (DOWN IN GA AND REF ONLY): 8.88
average expression of MYO7A (DOWN IN GA AND REF ONLY): 6.668
average expression of NEURL (DOWN IN GA AND REF ONLY): 5.956
average expression of NISCH (DOWN IN GA AND REF ONLY): 7.088
average expression of NOS3 (DOWN IN GA AND REF ONLY): 5.804
average expression of NTE (DOWN IN GA AND REF ONLY): 8.3088
average expression of OLFR150 (DOWN IN GA AND REF ONLY): 5.626
average expression of OLFR516 (DOWN IN GA AND REF ONLY): 5.76
average expression of OLFR586 (DOWN IN GA AND REF ONLY): 5.541
average expression of OPHN1 (DOWN IN GA AND REF ONLY): 5.71
average expression of ORF19 (DOWN IN GA AND REF ONLY): 6.879
average expression of P2RX4 (DOWN IN GA AND REF ONLY): 7.358
average expression of PAPSS2 (DOWN IN GA AND REF ONLY): 6.662
average expression of PARD3B (DOWN IN GA AND REF ONLY): 5.905
average expression of PCBP2 (DOWN IN GA AND REF ONLY): 12.63
average expression of PCDH19 (DOWN IN GA AND REF ONLY): 5.63
average expression of PEO1 (DOWN IN GA AND REF ONLY): 7.1356
average expression of PI4KB (DOWN IN GA AND REF ONLY): 9.544
average expression of PIK3R6 (DOWN IN GA AND REF ONLY): 6.343
average expression of PLEKHB2 (DOWN IN GA AND REF ONLY): 9.006
average expression of PREP (DOWN IN GA AND REF ONLY): 7.918
average expression of PRKCZ (DOWN IN GA AND REF ONLY): 6.967
average expression of PROM (DOWN IN GA AND REF ONLY): 5.87
average expression of RARG (DOWN IN GA AND REF ONLY): 6.121
average expression of RASGRF1 (DOWN IN GA AND REF ONLY): 5.764
average expression of RBM15 (DOWN IN GA AND REF ONLY): 7.902
average expression of RCCD1 (DOWN IN GA AND REF ONLY): 8.174
average expression of REN1 (DOWN IN GA AND REF ONLY): 5.599
average expression of RFFL (DOWN IN GA AND REF ONLY): 7.211
average expression of RHBDD1 (DOWN IN GA AND REF ONLY): 7.627
average expression of RING1 (DOWN IN GA AND REF ONLY): 8.656
average expression of RNF10 (DOWN IN GA AND REF ONLY): 11.45
average expression of RNF123 (DOWN IN GA AND REF ONLY): 7.4966
average expression of S031414D18RIK (DOWN IN GA AND REF ONLY): 8.467
average expression of SCL0004023.1_57 (DOWN IN GA AND REF ONLY): 5.99
average expression of SEC16A (DOWN IN GA AND REF ONLY): 9.968
average expression of SETD1A (DOWN IN GA AND REF ONLY): 8.956
average expression of SFXN3 (DOWN IN GA AND REF ONLY): 6.025
average expression of SGPL1 (DOWN IN GA AND REF ONLY): 7.481
average expression of SHC1 (DOWN IN GA AND REF ONLY): 11.03
average expression of SHKBP1 (DOWN IN GA AND REF ONLY): 8.287
average expression of SLC9A4 (DOWN IN GA AND REF ONLY): 5.715
average expression of SLC25A42 (DOWN IN GA AND REF ONLY): 6.212
average expression of SLC35E4 (DOWN IN GA AND REF ONLY): 5.806
average expression of SLCO6C1 (DOWN IN GA AND REF ONLY): 5.618
average expression of SMARCE1 (DOWN IN GA AND REF ONLY): 9.332
average expression of SNX15 (DOWN IN GA AND REF ONLY): 9.294
average expression of SNX33 (DOWN IN GA AND REF ONLY): 6.987
average expression of SOLH (DOWN IN GA AND REF ONLY): 7.952
average expression of SP2 (DOWN IN GA AND REF ONLY): 6.867
average expression of SRGAP2 (DOWN IN GA AND REF ONLY): 7.797
average expression of SRGAP3 (DOWN IN GA AND REF ONLY): 6.074
average expression of STARD3 (DOWN IN GA AND REF ONLY): 8.435
average expression of TBC1D2 (DOWN IN GA AND REF ONLY): 6.839
average expression of TBC1D25 (DOWN IN GA AND REF ONLY): 7.965
average expression of TEAD4 (DOWN IN GA AND REF ONLY): 5.994
average expression of TGFBI (DOWN IN GA AND REF ONLY): 6.19
average expression of TGIF1 (DOWN IN GA AND REF ONLY): 8.224
average expression of TIMM8A2 (DOWN IN GA AND REF ONLY): 5.837
average expression of TLR13 (DOWN IN GA AND REF ONLY): 6.019
average expression of TMEM56 (DOWN IN GA AND REF ONLY): 5.549
average expression of TMEM63A (DOWN IN GA AND REF ONLY): 7.667
average expression of TMUB1 (DOWN IN GA AND REF ONLY): 8.55
average expression of TNS4 (DOWN IN GA AND REF ONLY): 5.759
average expression of TRP53 (DOWN IN GA AND REF ONLY): 9.698
average expression of TYROBP (DOWN IN GA AND REF ONLY): 7.408
average expression of USP11 (DOWN IN GA AND REF ONLY): 6.423
average expression of USP22 (DOWN IN GA AND REF ONLY): 9.057
average expression of USP54 (DOWN IN GA AND REF ONLY): 6.972
average expression of WWP2 (DOWN IN GA AND REF ONLY): 8.833
average expression of ZC3H12A (DOWN IN GA AND REF ONLY): 8.215
average expression of ZFP36L1 (DOWN IN GA AND REF ONLY): 13.82
average expression of ZFP317 (DOWN IN GA AND REF ONLY): 7.218
average expression of ZFP704 (DOWN IN GA AND REF ONLY): 5.829
average expression of ZFPL1 (DOWN IN GA AND REF ONLY): 7.39
genericLS expression level (DOWN IN GA AND REF ONLY): 6.212
average expression of CLEC4B1 [1]: 5.984
average expression of LOC100048105 [1]: 13.17
average expression of SLC11A1 [1]: 6.429
average expression of CLEC4B1 [2]: 5.725
average expression of LOC100048105 [2]: 13.47
average expression of SLC11A1 [2]: 6.896
average expression of GAS7 (DOWN IN GA AND REF ONLY, second line for this gene (first at r2479)): 6.6505
29D0003A17RIK expression level (DOWN IN generic ONLY): 6.032
1700081L16RIK expression level (DOWN IN generic ONLY): 5.561
2210003I03RIK expression level (DOWN IN generic ONLY): 5.693
3110052M02RIK expression level (DOWN IN generic ONLY): 5.651
3110079O15RIK expression level (DOWN IN generic ONLY): 5.642
4833419KD8RIK expression level (DOWN IN generic ONLY): 5.588
4921522P10RIK expression level (DOWN IN generic ONLY): 5.793
4930543E05RIK expression level (DOWN IN generic ONLY): 5.681
4930571C24RIK expression level (DOWN IN generic ONLY): 5.414
5730599A22RIK expression level (DOWN IN generic ONLY): 5.675
6430527G18RIK expression level (DOWN IN generic ONLY): 5.618
6720487G11RIK expression level (DOWN IN generic ONLY): 5.949
A230066D03RIK expression level (DOWN IN generic ONLY): 5.913
A530088H08RIK expression level (DOWN IN generic ONLY): 5.838
A830021M18 expression level (DOWN IN generic ONLY): 5.662
ADAMTSL3 expression level (DOWN IN generic ONLY): 5.806
B230323D24RIK expression level (DOWN IN generic ONLY): 5.81
BRPF1 expression level (DOWN IN generic ONLY): 8.958
BTF3L4 expression level (DOWN IN generic ONLY): 5.682
C430020E23RIK expression level (DOWN IN generic ONLY): 5.906
CNTN2 expression level (DOWN IN generic ONLY): 5.729
CORO1B expression level (DOWN IN generic ONLY): 11.36
CRAT expression level (DOWN IN generic ONLY): 5.921
CREBZF expression level (DOWN IN generic ONLY): 5.66
D130050A01RIK expression level (DOWN IN generic ONLY): 5.633
D130061E05RIK expression level (DOWN IN generic ONLY): 5.723
D130063P19RIK expression level (DOWN IN generic ONLY): 5.768
D530031C13RIK expression level (DOWN IN generic ONLY): 5.728
DLG1 expression level (DOWN IN generic ONLY): 5.734
EFCAB1 expression level (DOWN IN generic ONLY): 5.72
EG634762 expression level (DOWN IN generic ONLY): 5.772
ELMO2 expression level (DOWN IN generic ONLY): 5.907
ENSMUSG00000071316 expression level (DOWN IN generic ONLY): 5.766
EZH2 expression level (DOWN IN generic ONLY): 5.625
